The text below walks through data of patent EP1000039B1 (Wyeth Holdings Corporation, priority 1997, dated 1999).

≈ marks a conversion by molar mass, not a printed value.

In series [1] the target is epidermal growth factor receptor kinase (Homo sapiens, UniProt P00533). As to the kind of experiment: Inhibition of Epidermal Growth Factor Receptor Kinase (EGF-R), cell membrane preparation (A431 membrane extract), RR-SRC peptide phosphorylation. The note with it: average of the number of tests.
Method: Test compounds were evaluated for their ability to inhibit the phosphorylation of the tyrosine residue of a peptide substrate catalyzed by the enzyme epidermal growth factor receptor kinase. […] The enzyme was obtained as a membrane extract of A431 cells (American Type Culture Collection, Rockville, MD). A431 cells were grown in T175 flasks to 80% confluency. The cells were washed twice with phosphate buffered saline (PBS) without Ca^2+. Flasks were rotated for 1.5 hours in 20 mL PBS with 1.0 mM ethylenediaminetetraacetic acid (EDTA) at room temperature and centrifuged at 600g for 10 minutes. […]
An aliquot of the A431 membrane extract (10 mg/mL) was diluted in 30 mM HEPES (pH 7.4) to give a protein concentration of 50 ug/mL. […] The % inhibition of the test compound was determined for at least three different concentrations and the IC50 value was evaluated from the dose response curve. […] CPM(control) is in units of counts per minute and was a number expressing the amount of radiolabled ATP (γ-^33P) incorporated onto the RR-SRC peptide substrate by the enzyme after 30 minutes at 30°C in the absence of test compound as measured by liquid scintillation counting. […]
The next series relates to MCF7. As to the kind of experiment: Inhibition of Cancer Cell Growth (Sulforhodamine B). Type of series: cell-based, Human. The note with it: Homo sapiens, 48 hours exposure, read-out: Inhibition of Cancer Cell Growth as Measured by Cell Number (IC50) MCF7. On the procedure: (§1) After 48 hours exposure to test compounds, cells were fixed with trichloroacetic acid, and stained with Sulforhodamine B. After washing with trichloroacetic acid, bound dye was solubilized in 10 mM Tris base and optical density was determined using plate reader. Under conditions of the assay the optical density is proportional to the number of cells in the well. […] The test procedure is described in details by Philip Skehan et. al. J.Natl. Canc. […]

In a further series the test system is A2780DDP. Described as above. The format is cell-based, Human. The note with it: Homo sapiens, 48 hours exposure, read-out: Inhibition of Cancer Cell Growth as Measured by Cell Number (IC50) A2780DDP. On the procedure: as §1
Another series deals with A2780S. The series is described as above. Type of series: cell-based, Human. The following applies: Homo sapiens, 48 hours exposure, read-out: Inhibition of Cancer Cell Growth as Measured by Cell Number (IC50) A2780S. Here is the method:
as §1

A further series has as its system A431. Described as above. The format is cell-based, Human. The following applies: Homo sapiens, A-431, 48 hours exposure, read-out: Inhibition of Cancer Cell Growth as Measured by Cell Number (IC50) A431. On the procedure: as §1
The test system of a further series is LOX. The description is as above. The format is cell-based, Human. The following applies: Homo sapiens, 48 hours exposure, read-out: Inhibition of Cancer Cell Growth as Measured by Cell Number (IC50) LOX. On the procedure:
as §1

In another series the test system is SW620. The description is as above. Type of series: cell-based, Human. The note with it: Homo sapiens, SW-620, 48 hours exposure, read-out: Inhibition of Cancer Cell Growth as Measured by Cell Number (IC50) SW620. Here is the method:
as §1

The test system of series [2] is Human Epidermoid Tumors (A431). Briefly: In Vivo Inhibition of the Growth of Human Epidermoid Tumors (A431) in mice. The note with it: days 1 through 10.
Series [3] concerns Human Epidermoid Tumors (A431). The series is described as above. On the procedure:
BALB/c nu/nu female mice (Charles River, Wilmington, MA) were used in the in vivo standard pharmacological test procedures. Human epidermoid carcinoma cells A-431 (American Type Culture Collection, Rockville, Maryland # CRL-155) were grown in vitro as described above. A unit of 5 X 10^6 cells were injected SC into mice. When tumors attained a mass of between 100 and 150 mg, the mice were randomized into treatment groups (day zero). Mice were treated iP or PO once a day either on days 1, 5, and 9 or on days 1 through 10 post staging with doses of either 80, 40 or 20, or 10 mg/kg/dose of the compound to be evaluated in 0.2% Klucel. Control animals received no drug. Tumor mass was determined every 7 days [(length X width^2)/2) for 28 days post staging. Relative tumor growth (Mean tumor mass on day 7, 14, 21, and 28 divided by the mean tumor mass on day zero) is determined for each treatment group. The %T/C (Tumor/Control) is determined by dividing the relative tumor growth of the treated group by the relative tumor growth of the placebo group and multiplying by 100. A compound is considered to be active if the %T/C is found to be […].

Series [4] concerns the target T1, His-tagged cytoplasmic domain of EGFR (Homo sapiens, UniProt P00533).
T1 construct: containing the EGFR cDNA encoding amino acids 645 - 1186 preceded by Met-Ala-(His)6; Met-Ala-(His)6 (N); made in house; host or cells: Sf9 insect cells, recombinant baculovirus vHcEGFR52
As to the kind of experiment: Inhibition of Epidermal Growth Factor Receptor Kinase (EGF-R) using recombinant enzyme, RR-SRC peptide phosphorylation. Type of series: biochemical. The following applies: recombinant enzyme; average of the number of tests; read-out: IC50. On the procedure: The enzyme used in this assay is the His-tagged cytoplasmic domain of EGFR. […] Sf9 cells in 100 mm plates were infected at an moi of 10 pfu/cell and cells were harvested 48 h post infection. A cytoplasmic extract was prepared using 1% Triton X-100 and applied to Ni-NTA column. After washing the column with 20 mM imidazole, HcEGFR was eluted with 250 mM imidazole (in 50 mM Na2HPO4, pH 8.0, 300 mM NaCl). Fractions collected were dialyzed against 10 mM HEPES, pH 7.0, 50 mM NaCl, 10% glycerol, 1ug/mL antipain and leupeptin and 0. 1 mM Pefabloc SC. The protein was frozen in dry ice/methanol and stored -70°C.
For the enzyme reaction, 10 uL of each inhibitor (at various concentrations) were added to each well of a 96-well plate. To this was added 3 uL of enzyme (1: 10 dilution in 10mM HEPES, pH 7.4 for final conc. of 1:120). This was allowed to sit for 10 min on ice and was followed by the addition of 5 ul peptide (80 uM final conc.), 10ul of 4X Buffer (Table A), 0.25 uL ^33P-ATP and 12 uL H2O. The reaction was allowed to run for 90 min at room temperature and was followed by spotting the entire volume on to precut P81 filter papers. The filter discs were washed 2X with 0.5% phosphoric acid and radioactivity was measured using a liquid scintillation counter.

For another series, the system named is MB435. As to the kind of experiment: Inhibition of Cancer Cell Growth (Sulforhodamine B). The format is cell-based, Human. The following applies: Homo sapiens, 48 hours exposure, read-out: Inhibition of Cancer Cell Growth as Measured by Cell Number (IC50) MB435. Here is the method: as §1
The test system of the next series is SKBR3. The series is described as above. The note with it: Homo sapiens, SK-BR-3, 48 hours exposure, read-out: Inhibition of Cancer Cell Growth as Measured by Cell Number (IC50) SKBR3. Type of series: cell-based, Human. Here is the method:
as §1

epidermal growth factor receptor kinase, sequence (P00533 25-1210): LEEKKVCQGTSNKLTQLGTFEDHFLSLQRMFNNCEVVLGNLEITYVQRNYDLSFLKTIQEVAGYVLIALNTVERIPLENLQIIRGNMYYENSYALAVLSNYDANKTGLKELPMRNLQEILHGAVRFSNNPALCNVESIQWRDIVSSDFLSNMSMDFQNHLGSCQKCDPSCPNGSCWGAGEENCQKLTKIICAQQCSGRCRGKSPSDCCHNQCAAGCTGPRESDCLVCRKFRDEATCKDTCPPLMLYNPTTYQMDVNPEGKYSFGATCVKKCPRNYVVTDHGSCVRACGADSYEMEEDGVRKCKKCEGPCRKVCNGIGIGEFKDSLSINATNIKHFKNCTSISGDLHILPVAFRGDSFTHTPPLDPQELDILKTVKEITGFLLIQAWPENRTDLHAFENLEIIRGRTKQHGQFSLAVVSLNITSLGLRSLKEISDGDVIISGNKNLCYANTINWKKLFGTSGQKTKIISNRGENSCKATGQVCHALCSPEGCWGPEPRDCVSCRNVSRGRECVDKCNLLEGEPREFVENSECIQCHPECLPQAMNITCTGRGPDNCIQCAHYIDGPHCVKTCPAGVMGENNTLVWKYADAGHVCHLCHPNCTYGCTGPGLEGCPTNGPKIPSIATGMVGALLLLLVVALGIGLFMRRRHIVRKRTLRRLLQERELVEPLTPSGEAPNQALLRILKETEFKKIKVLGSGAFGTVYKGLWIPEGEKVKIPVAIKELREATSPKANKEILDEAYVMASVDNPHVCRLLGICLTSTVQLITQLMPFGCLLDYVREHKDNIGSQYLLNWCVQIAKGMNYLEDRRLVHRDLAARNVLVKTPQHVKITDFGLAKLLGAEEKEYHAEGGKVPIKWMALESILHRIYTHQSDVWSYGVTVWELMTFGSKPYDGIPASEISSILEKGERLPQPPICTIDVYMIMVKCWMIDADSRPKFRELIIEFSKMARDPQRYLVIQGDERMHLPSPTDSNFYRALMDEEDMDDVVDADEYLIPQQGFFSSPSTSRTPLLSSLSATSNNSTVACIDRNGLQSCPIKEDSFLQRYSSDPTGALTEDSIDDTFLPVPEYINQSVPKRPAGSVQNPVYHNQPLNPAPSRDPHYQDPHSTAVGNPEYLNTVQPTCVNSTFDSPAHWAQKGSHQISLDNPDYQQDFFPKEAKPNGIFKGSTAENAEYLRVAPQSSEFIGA
T1 sequence (P00533 669-1210): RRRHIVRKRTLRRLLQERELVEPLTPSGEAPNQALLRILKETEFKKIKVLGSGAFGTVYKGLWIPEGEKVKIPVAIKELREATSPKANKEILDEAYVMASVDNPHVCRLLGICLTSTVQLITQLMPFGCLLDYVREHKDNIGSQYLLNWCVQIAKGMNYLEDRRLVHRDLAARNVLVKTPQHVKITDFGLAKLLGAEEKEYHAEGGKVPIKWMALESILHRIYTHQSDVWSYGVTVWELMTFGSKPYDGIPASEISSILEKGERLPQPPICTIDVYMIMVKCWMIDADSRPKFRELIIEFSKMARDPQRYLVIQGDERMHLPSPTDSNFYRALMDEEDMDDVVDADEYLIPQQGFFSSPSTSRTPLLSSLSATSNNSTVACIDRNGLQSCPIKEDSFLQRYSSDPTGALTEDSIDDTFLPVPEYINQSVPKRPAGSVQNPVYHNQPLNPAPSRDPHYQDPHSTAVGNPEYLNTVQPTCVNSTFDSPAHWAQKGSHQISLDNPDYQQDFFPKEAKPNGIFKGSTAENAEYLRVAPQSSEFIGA

In the case of `COC(=O)/C=C/CNc1ccc2ncnc(Nc3cccc(Br)c3)c2c1` [Example 60, (E)-4-[4-(3-Bromo-phenylamino)-quinazolin-6-ylamino]-but-2-enoicacid methyl ester], the IC50 (in general, the concentration that inhibits the measured activity by half) in [1] came to 34 nM; in the series on MCF7 it was 0.566 µg/mL (≈ 1.37 µM); in the series on A2780DDP, 0.626 µg/mL (≈ 1.51 µM); with A2780S, 0.749 µg/mL (≈ 1.81 µM); in the series with A431, 0.35 µg/mL (≈ 0.847 µM); in the series with LOX, 0.725 µg/mL (≈ 1.75 µM). Besides, the IC50 with SW620 was 1.89 µg/mL (≈ 4.57 µM).
`CN(C)CC#CC(=O)Nc1ccc2ncnc(Nc3cccc(Br)c3)c2c1` [Example 21, 4-Dimethylamino-but-2-ynoic acid [4-(3-bromo-phenylamino)-quinazolin-6-yl]-amide]: the results for the “%T/C Day 16” value in series [2] (10 mg/kg/dose PO (footnote: IP)), in series [2] (20 mg/kg/dose PO (footnote: IP)) and in series [2] (40 mg/kg/dose PO (footnote: IP)) were 56%, 82% and 84%, respectively.
Turning to `C=C(CNc1ccc2ncnc(Nc3cccc(Br)c3)c2c1)C(=O)OC` [Example 59, 2-{[4-(3-Bromo-phenylamino)-quinazolin-6-ylamino]-methyl)-acrylic acid methyl ester], the IC50 came out at 1.26 nM in series [1]; 1.58 µg/mL (≈ 3.82 µM) with MCF7; 0.603 µg/mL (≈ 1.46 µM) in the series on A2780DDP; 0.424 µg/mL (≈ 1.03 µM) in the series with A2780S; 0.315 µg/mL (≈ 0.762 µM) with A431; 0.482 µg/mL (≈ 1.17 µM) in the series with LOX. Also, the IC50 in the series with SW620 worked out at 0.581 µg/mL (≈ 1.41 µM).
Take `CCN(CC)CC#CC(=O)Nc1ccc2ncnc(Nc3cccc(Br)c3)c2c1` [Example 25, 4-Diethylamino-but-2-ynoic acid [4-(3-bromo-phenylamino)-quinazolin-6-yl]-amide]: the “S/T (No. Survivors/No. Treated on Day +28 post tumor staging)” value in series [3] (Table 5: 40 PO, days 1 through 10) is recorded as 4/5. Besides, the “%T/C Day 7” value in series [3] (Table 5: 40 PO, days 1 through 10, Day 7) amounted to 71%. Further, the “%T/C Day 14” value in [3] (Table 5: 40 PO, days 1 through 10, Day 14) came out at 33%. Also, in series [3] (Table 5: 40 PO, days 1 through 10, Day 21), the “%T/C Day 21” value turned out to be 40%. For the same compound, the “%T/C Day 28” value in [3] (Table 5: 40 PO, days 1 through 10, Day 28) is on record as 52%. In addition, in [3] (summary of the results of TABLE 4 / TABLE 5), the “inhibition of tumor growth in vivo (result in words)” value was “effective inhibitor of tumor growth in vivo”. Also, the IC50 amounted to 14 nM in [4]; 0.74 µg/mL (≈ 1.64 µM) in the series on MCF7; 0.04 µg/mL (≈ 0.0884 µM) in the series with A2780DDP; 0.04 µg/mL (≈ 0.0884 µM) in the series with A2780S; 0.05 µg/mL (≈ 0.111 µM) with MB435; 0.06 µg/mL (≈ 0.133 µM) with A431. For the same compound, the values for the IC50 with SKBR3, in the series on LOX and in the series with SW620 were 0.004 µg/mL (≈ 0.00884 µM), 0.1 µg/mL (≈ 0.221 µM) and 0.07 µg/mL (≈ 0.155 µM), respectively.
